Molecules are shown by their SMILES.

Data set [1] is described as follows: Mammalian Toxicity Test (peroral toxicity). The settings on record: in vivo, po, rat, read-out: A. O. Rat (LD50). How it is done: Certain of these compositions were also evaluated to determine their peroral toxicity to mammals. The animal selected for this experiment was the rat. The test results obtained are expressed in terms of the number of milligrams of compositions per kilogram of weight of the animal required to achieve a morality rate of 50 percent (LD50).

For data set [2], the system named is bean aphid (Aphis Fabae Scop.). The data set can be described thus: Bean Aphid Foliage Spray Test. Type of data set: in vivo. Set-up: key: A: excellent control; B: partial control; C: no control. As to conditions: 500 parts of test compound per million parts of final formulation; 24 hour. How it is done:
(§1) Suspensions of the test compounds were prepared by dissolving one gram of compound in 50 milliliters of acetone in which had been dissolved 0.1 gram (10 percent of the weight of compound) of an alkylphenoxy polyethoxyethanol surfactant, as an emulsifying or dispersing agent. The resulting solution was mixed into 150 milliliters of water to give roughly 200 milliliters of a suspension containing the compound in finely divided form. The thus-prepared stock suspension contained 0.5 percent by weight of test compound. The test concentrations in parts per million by weight employed in the tests described hereinbelow were obtained by appropriate dilutions of the stock suspension with water. The test procedures were as follows:
Adults and nymphal stages of the bean aphid (Aphis Fabae Scop.) reared on potted dwarf nasturtium plants at 65°-70° F and 50-70 percent relative humidity, constituted the test insects. For testing purposes, the number of aphids per pot was standardized to 100-150 by trimming plants containing excess aphids.
The test compounds were formulated by diluting the stock suspension with water to give a suspension containing 500 parts of test compound per million parts of final formulation.
The potted plants (one pot per compound tested) infested with 100-150 aphids, were placed on a revolving turntable and sprayed with 100-110 milliliters of test compound formulation by use of a DeVilbiss spray gun set at 40 psig. air pressure. This application, which lasted 25 seconds, was sufficient to wet the plants to run-off. As a control, 100-110 milliliters of a water-acetone-emulsifier solution containing no test compound were also sprayed on infested plants. After spraying, the pots were placed on their sides on a sheet of white standard mimeograph paper which had been previously ruled to facilitate counting. Temperature and humidity in the test room during the 24 hour holding period were 65°-70° F. and 50-70 percent, respectively. Aphids which fell onto the paper and were unable to remain standing after being uprighted were considered dead. Aphids remaining on the plants were observed closely for movement and those which were unable to move the length of the body upon stimulator by prodding were considered dead. Percent mortality was recorded for various concentration levels.
(§2) In these tests the pesticidal activity of the compounds against aphid, mite, Southern Armyworm, Mexican Bean Beetle, and house fly was rated as follows: […]

Data set [3] relates to house flies (Musca domestica, L.). The data set is described as follows: Fly Bait Test. The class given is in vivo. Also on record: key: A: excellent control; B: partial control; C: no control. As to conditions: adults, 500 parts of test compound per million parts of final formulation, 24 hours. How it is done: as §1
Four to 6 day old adult house flies (Musca domestica, L.) reared according to the specifications of the Chemical Specialties Manufacturing Association (Blue Book, McNair-Dorland Co., NY., 1954; pages 243-244, 261) under controlled conditions of 80±5° F. and 50±5 percent relative hmidity, were the test insects. The flies were immobilized by anesthetizing with carbon dioxide and 25 immobilized individuals, males and females, were transferred to a cage consisting of a standard food strainer about 5 inches in diameter which was inverted over a wrapping-paper-covered surface. The test compounds were formulated by diluting the stock suspension with a 10 percent (by weight) sugar solution to give a suspension containing 500 parts of test compound per million parts of final formulation, by weight. Ten milliliters of the test formulation were added to a souffle cup containing a one inch square of an absorbent cotton pad. This bait cup was introduced and centered on the blotting paper under the food strainer prior to admitting the anesthetized flies. The caged flies were allowed to feed on the bait for 24 hours, at a temperature of 80±5° F. and the relative humidity of 50±5 percent.
as §2

In data set [4] the test system is southern armyworm (Prodenia Eridania, (Cram.)). The data set can be described thus: Southern Armyworm Leaf Spray Test. The class given is in vivo. Set-up: key: A: excellent control; B: partial control; C: no control. The settings on record: larvae; 500 parts of test compound per million parts of final formulation; 3 days. How it is done: as §1
Larvae of the southern armyworm (Prodenia Eridania, (Cram.), reared on Tendergreen bean plants at a temperature of 80±5° F. and relative humidity of 50±5 percent, constituted the test insects.
The test compounds were formulated by diluting the stock suspension with water to give a suspension containing 500 parts of test compound per million parts of final formulation. Potted Tendergreen bean plants of standard height and age were placed on a revolving turntable and sprayed with 100-110 milliliters of test compound formulation by use of a DeVilbiss spray gun set at 10 psig. air pressure.
This application which lasted 25 seconds was sufficient to wet plants to run-off. As a control, 100-110 milliliters of a water-acetone-emulsifier solution containing no test compound were also sprayed on infested plants. When dry, the paired leaves were separated and each one was placed in a 9 centimeter Petri dish lined with moistened filter paper. Five randomly selected larvae were introduced into each dish and the dishes were closed. The closed dishes were labeled and held at 80°-85° F. for 3 days. Although the larvae could easily consume the whole leaf within 24 hours, no more food was added. Larvae which were unable to move the length of the body, even upon stimulation by prodding, were considered dead. Percent mortality was recorded for various concentration levels.
as §2

Data set [5] relates to Mexican bean beetle (Epilachna varivestis, Muls.). The data set can be described thus: Mexican Bean Beetle Leaf Spray Test. Type of data set: in vivo. Also on record: key: A: excellent control; B: partial control; C: no control. As to conditions: fourth instar larvae; 500 parts of test compound per million parts of final formulation; 3 days. How it is done:
as §1
Fourth instar larvae of the Mexican bean beetle (Epilachna varivestis, Muls.) reared on Tendergreen bean plants at a temperature of 80±5° and 50±5 percent relative humidity, were the test insects.
The test compounds were formulated by diluting the stock suspension with water to give a suspension containing 500 parts of test compound per million parts of final formulation. Potted Tendergreen bean plants of standard height and age were placed on a revolving turntable and sprayed with 100-110 milliliters of test compound formulation by use of a DeVilbiss spray gun set at 10 psig air pressure. This application, which lasted 25 seconds was sufficient to wet plants to run-off. As a control, 100-110 milliliters of a water-acetone-emulsifier solution containing no test compound were also sprayed on infested plants. When dry, the paired leaves were separated and each was placed in a 9 centimeter Petri dish lined with moistened filter paper. Five randomly selected larvae were introduced into each dish, and the dishes were closed. The closed dishes were labeled and held at a temperature of 80±5° F. for 3 days. Although the larvae could easily consume the leaf within 24 to 48 hours, no more food was added. Larvae which were unable to move the length of the body, even upon stimulation, were considered dead.
as §2

Data set [6] relates to two-spotted mite (Tetranychus urticae Koch). The data set is described as follows: Mite Foliage Spray Test. The class given is in vivo. Set-up: key: A: excellent control; B: partial control; C: no control. As to conditions: 500 parts of test compound per million parts of final formulation; 6 days. How it is done:
as §1
Adults and nymphal stages of the two-spotted mite (Tetranychus urticae Koch), reared on Tendergreen bean plants at 80±5 percent relative humidity, were the test organisms. Infested leaves from a stock culture were placed on the primary leaves of two bean plants 6 to 8 inches in height, growing in a 21/2 inch clay pot. 150-200 Mites, a sufficient number for testing, transferred from the excised leaves to the fresh plants in a period of 24 hours. Following the 24 hour transfer period, the excised leaves were removed from the infested plants. The test compounds were formulated by diluting the stock suspension with water to give a suspension with water to give a suspension containing 500 parts of test compound per million parts of final formulation. The potted plants (one pot per compound) were placed on a revolving turntable and sprayed with 100-110 milliliters of test compound formulation by use of a DeVilbiss spray gun set at 40 psig. air pressure. This application, which lasted for 25 seconds was sufficient to wet the plants to run-off. As a control, 100-110 milliliters of a water solution containing acetone and emulsifier in the same concnetrations as the test compound formulation, but containing no test compound, were also sprayed on infested plants. The sprayed plants were held at 80±5 percent relative humidity for 6 days, after which a mortality count of motile forms was made. Microscopic examination for motile forms was made on the leaves of the test plants. Any individual which was capable of locomotion upon prodding, was considered living.
as §2

As for `CSC(C)=NOC(=O)N(C)SN(C)C(=O)ON=C(C)[S+](C)[O-]` (stereo not shown), the LD50 in data set [1] was 202 mg/kg. In addition, the Aphid result in data set [2] is “A”. Moreover, the Housefly result in data set [3] is given as “A”. Besides, the “Southern Armyworm” value in data set [4] was “A”. Besides, the “Mexican Bean Beetle” value in data set [5] is “A”. Besides, the Mite entry in data set [6] was “C”.
Take `CSC(C)=NOC(=O)N(C)SN(C)C(=O)ON=C(C)S(C)(=O)=O`: the LD50 in data set [1] turned out to be 285 mg/kg. Besides, the Aphid entry in data set [2] is recorded as “A”. Moreover, in data set [3], the Housefly result was “A”. The “Southern Armyworm” value in data set [4] is “A”. In addition, in data set [5], the “Mexican Bean Beetle” value was “A”. In addition, in data set [6], the Mite entry is “A”.
As to `CC(=NOC(=O)N(C)SN(C)C(=O)ON=C(C)[S+](C)[O-])[S+](C)[O-]` (stereo not shown), the Aphid entry in data set [2] was “C”. The Housefly result in data set [3] is reported as “C”. In addition, the “Southern Armyworm” value in data set [4] was “C”. Further, the “Mexican Bean Beetle” value in data set [5] is “C”. For the same compound, the Mite result in data set [6] is on record as “C”.
On to `CC(=NOC(=O)N(C)SN(C)C(=O)ON=C(C)S(C)(=O)=O)S(C)(=O)=O`, for which, in data set [2], the Aphid result is listed as “C”. For the same compound, the Housefly entry in data set [3] is given as “C”. In data set [4], the “Southern Armyworm” value is listed as “C”. For the same compound, the “Mexican Bean Beetle” value in data set [5] is “C”. The Mite result in data set [6] is “C”.

As a reminder, the LD50 is the dose expected to kill half of the subjects tested.
